Data published in ChEMBL document CHEMBL5241108 (J Med Chem, 2021).
Values after ≈ are worked out from the molar mass of the structure shown.

Legend:
[1] = Lipophilicity, logD of compound at pH 7.5 by reversed-phase HPLC analysis; assay type: physicochemical; settings: buffer
[2] = Metabolic stability in Han Wistar rat hepatocytes assessed as maximum bioavailability at 1 uM in presence of NADP and measured upto 90 mins by LC-MS/MS analysis; assay type: ADME, Hepatocyte; settings: read-out: Fmax
[3] = Metabolic stability in Han Wistar rat liver microsomes assessed as intrinsic clearance at 1 uM in presence of NADP and measured upto 60 mins by LC-MS/MS analysis; assay type: ADME, Microsome; settings: read-out: CLH (converted)
[4] = Metabolic stability in Han Wistar rat liver microsomes assessed as maximum bioavailability at 1 uM in presence of NADP and measured upto 60 mins by LC-MS/MS analysis; assay type: ADME, Microsome; settings: read-out: Fmax
[5] = Metabolic stability in Han Wistar rat hepatocytes assessed as intrinsic clearance at 1 uM in presence of NADP and measured upto 90 mins by LC-MS/MS analysis; assay type: ADME, cell-based, Hepatocyte; settings: read-out: CLH (converted)
[6] = Aqueous solubility of compound at pH 6.5 and measured after 24 hrs by HPLC-MS/MS analysis; assay type: physicochemical; settings: buffer
[7] = Acid dissociation constant, pKa of the compound; assay type: physicochemical
[8] = Metabolic stability in human liver microsomes assessed as maximum bioavailability at 1 uM in presence of NADP and measured upto 60 mins by LC-MS/MS analysis; assay type: ADME, Microsome; settings: read-out: Fmax
[9] = Stability of compound at pH 1 at 5 uM and measured upto 24 hrs by HPLC-UV analysis; assay type: physicochemical; settings: buffer, pH 1, 24 h
[10] = Stability of compound at pH 10 at 5 uM and measured upto 24 hrs by HPLC-UV analysis; assay type: physicochemical; settings: buffer, pH 10, 24 h
[11] = Stability of compound at pH 7 at 5 uM and measured upto 24 hrs by HPLC-UV analysis; assay type: physicochemical; settings: buffer, pH 7, 24 h

Row | chromatographic logD [1] | Structure (SMILES) | other results
1 | 2.1 | CC[C@@H](Nc1c(C#N)c(-c2ccc(-c3ccccc3CO)cc2)nc2cnccc12)C(N)=O | –
2 | 3 | CCOc1ccccc1-c1ccc(-c2nc3cnccc3c(NC(C(N)=O)C3CC3)c2C#N)cc1 (racemic) | –
3 | 1.6 | CC[C@@H](Nc1c(C#N)c(-c2ccc(Br)cc2)nc2cnccc12)C(=O)O | –
4 | 2.6 | CC[C@@H](Nc1c(C#N)c(-c2ccc(-c3ccccc3COC)cc2)nc2cnccc12)C(N)=O | –
5 | 3.2 | CC[C@@H](Nc1c(C#N)c(-c2ccc(-c3ccccc3N(C)C)cc2)nc2cnccc12)C(N)=O | –
6 | 3.4 | CCOc1ccccc1-c1ccc(-c2nc3cnccc3c(N[C@H](CC(C)C)C(N)=O)c2C#N)cc1 | –
7 | 2.3 | CCOc1ccccc1-c1ccc(-c2nc3cnccc3c(N[C@H](CC)C(=O)NS(=O)(=O)C3CC3)c2C#N)cc1 | –
8 | 2.2 | CCOc1ccccc1-c1ccc(-c2nc3cnccc3c(N[C@H](CC)C(=O)NS(C)(=O)=O)c2C#N)cc1 | –
9 | 3 | CC[C@@H](Nc1c(C#N)c(-c2ccc(-c3ccccc3C)cc2)nc2cnccc12)C(N)=O | –
10 | 2 | CC[C@@H](Nc1c(C#N)c(-c2ccc(-c3ccncc3C)cc2)nc2cnccc12)C(N)=O | –
11 | 2.1 | CC(Nc1c(C#N)c(-c2ccc(Br)cc2)nc2cnccc12)C(N)=O (racemic) | –
12 | 3 | CC[C@@H](Nc1c(C#N)c(-c2ccc(-c3cccc(C)c3)cc2)nc2cnccc12)C(N)=O | –
13 | 1.9 | CC[C@@H](Nc1c(C#N)c(-c2ccc(-c3cccnc3C)cc2)nc2cnccc12)C(N)=O | –
14 | 2 | CC[C@@H](Nc1c(C#N)c(-c2ccc(-c3cccc(CO)c3)cc2)nc2cnccc12)C(N)=O | –
15 | 3.1 | CC[C@@H](Nc1c(C#N)c(-c2ccc(-c3ccccc3C(F)(F)F)cc2)nc2cnccc12)C(N)=O | –
16 | 3.6 | CCCCC(Nc1c(C#N)c(-c2ccc(-c3ccccc3OCC)cc2)nc2cnccc12)C(N)=O (racemic) | –
17 | 2.1 | CC(C)(Nc1c(C#N)c(-c2ccc(Br)cc2)nc2cnccc12)C(N)=O | –
18 | 2.9 | CC[C@@H](Nc1c(C#N)c(-c2ccc(-c3ccccc3Cl)cc2)nc2cnccc12)C(N)=O | –
19 | 3.1 | CC[C@@H](Nc1c(C#N)c(-c2ccc(-c3cccc(Cl)c3OC)cc2)nc2cnccc12)C(N)=O | –

Row | chromatographic logD [1] | Structure (SMILES) | other results
20 | 3.5 | CC[C@@H](Nc1c(C#N)c(-c2ccc(-c3ccccc3C(C)C)cc2)nc2cnccc12)C(N)=O | –
21 | 2 | CC[C@@H](Nc1c(C#N)c(-c2ccc(-c3ncccc3C)cc2)nc2cnccc12)C(N)=O | –
22 | 2 | CC[C@@H](Nc1c(C#N)c(-c2ccc(-c3cnccc3C)cc2)nc2cnccc12)C(N)=O | –
23 | 3 | CCOc1ccccc1-c1ccc(-c2nc3cnccc3c(C[C@H](C)C(N)=O)c2C#N)cc1 | –
24 | 2.7 | CCOc1ccccc1-c1ccc(-c2nc3cnccc3c(N[C@@H]3CCNC3=O)c2C#N)cc1 | –
25 | 3.8 | CCOc1ccccc1-c1ccc(-c2nc3cnccc3cc2C#N)cc1 | –
26 | 2.1 | CCOc1ccccc1-c1ccc(-c2nc3cnccc3c(N[C@H](CC)C(=O)O)c2C#N)cc1 | Fh at 1.5 h, 1 µM [2]: 87%; CLint scaled at 1 µM [3]: 8.33 mL/min/kg; Fh at 1 h, 1 µM [4]: 87%; CLint scaled at 1 µM [5]: 8.33 mL/min/kg; solubility at 24 h [6]: 112 µg/mL (≈ 248 µM)
27 | 3 | CCOc1ccccc1-c1ccc(-c2nc3cnccc3c(N)c2C#N)cc1 | –
28 | 2.8 | CCOc1ccccc1-c1ccc(-c2nc3cnccc3c(NC(COC)C(N)=O)c2C#N)cc1 (racemic) | –
29 | 2.2 | CC[C@@H](Nc1c(C#N)c(-c2ccc(-c3cccc(Cl)c3F)cc2)nc2cnccc12)C(=O)O | –
30 | 2.5 | CC[C@@H](Nc1c(C#N)c(-c2ccc(-c3ccccc3NC)cc2)nc2cnccc12)C(N)=O | –
31 | 3.1 | CC[C@@H](Nc1c(C#N)c(-c2ccc(-c3cccc(Cl)c3)cc2)nc2cnccc12)C(N)=O | –
32 | 2.7 | CC[C@@H](Nc1c(C#N)c(-c2ccc(-c3ccc(F)cc3)cc2)nc2cnccc12)C(N)=O | –
33 | 2.1 | CCOc1ccccc1-c1ccc(-c2nc3cnccc3c(NC(C)C(=O)O)c2C#N)cc1 (racemic) | pKa [7]: 3.26
34 | 2.1 | CC[C@@H](Nc1c(C#N)c(-c2ccc(-c3cccc(C)c3F)cc2)nc2cnccc12)C(=O)O [BAY-091] | Fh at 1 h, 1 µM [8]: 100%; Stability [9]: Stable; Fh at 1.5 h, 1 µM [2]: 44%; CLint scaled at 1 µM [3]: 46.7 mL/min/kg; Stability [10]: Stable; Stability [11]: Stable; Fh at 1 h, 1 µM [4]: 33%; CLint scaled at 1 µM [5]: 38.3 mL/min/kg; solubility at 24 h [6]: > 1000 µg/mL
35 | 3.7 | CCOc1ccccc1-c1ccc(-c2nc3cnccc3c(N[C@H](CC)C(=O)N(C)C)c2C#N)cc1 | –
36 | 2.1 | CCOc1ccccc1-c1ccc(-c2nc(NC(C)C(=O)O)c3ccncc3n2)cc1 (racemic) | –
37 | 3.6 | CCOc1ccccc1-c1ccc(-c2nc3cnccc3c(N[C@H](CC)C(=O)NCC(F)F)c2C#N)cc1 | –
38 | 3.6 | CCOc1ccccc1-c1ccc(-c2nc3cnccc3c(NC(CC)CNS(=O)(=O)C3CC3)c2C#N)cc1 (racemic) | –
